How the values were obtained:
HER2+/2VE Ba/F3 line = assay: Ba/F3 proliferation assay, HER2+/2VE; format: cell-based; settings: Mus musculus, BaF3; Tables 7 and 8
Procedure: (§1) Proliferation Assays. For adherent cell lines, cells were plated onto opaque white 96 well plates (Greiner cat #655083) and allowed to adhere overnight. The following day media was changed to fresh media that contained either DMSO or the indicated concentration of drug plus NRG (50 ng/mL final concentration) as indicated. Plates were incubated at 37° C. for 72 h and proliferation was read out using Cell Titer Glo (Promega) according to the manufacturer's protocol. For Ba/F3 cell proliferation, cells, drug dilution, and any necessary growth factors (10 ng/mL IL-3 or 6.25 ng/mL NRG) were combined in a well of a 96 well plate. Plates were incubated at 37° C. for 48 h and proliferation was read out using Cell Titer Glo according to the manufacturer's protocol. For all normalized assays, proliferation was normalized to the DMSO control condition. All graphs were plotted in GraphPad Prism 6 and fit with a non-linear regression of the log(inhibitor) vs response with a variable slope where shown. All graphs are averages (+/−standard deviation) of biological triplicates each performed in technical triplicate unless otherwise noted. If only one biological replicate was performed standard deviations were derived from the technical replicates.

[1] = system: parental Ba/F3 cells + IL-3; assay: Ba/F3 proliferation assay, Parental + IL-3; format: cell-based; settings: Mus musculus, BaF3; Tables 7 and 8; read-out: Ba/F3 line IC50, Parental + IL-3
Procedure: (§2) To validate the screen and test the effectiveness of counter-screening with either the same 2YF/3wt Ba/F3 cell line or the parental Ba/F3's in the presence of IL-3 to remove cytotoxic primary hits, we first tested a panel of kinase inhibitors with established mechanisms of action.
as §1

Axl+ Ba/F3 cells = molecular target: T1, Axl+ Ba/F3 cells (Homo sapiens, UniProt P30530); assay: Ba/F3 proliferation assay, Axl+; format: cell-based; settings: Tables 7 and 8; read-out: Ba/F3 line IC50, Axl+
T1 sequence (P30530 1-894): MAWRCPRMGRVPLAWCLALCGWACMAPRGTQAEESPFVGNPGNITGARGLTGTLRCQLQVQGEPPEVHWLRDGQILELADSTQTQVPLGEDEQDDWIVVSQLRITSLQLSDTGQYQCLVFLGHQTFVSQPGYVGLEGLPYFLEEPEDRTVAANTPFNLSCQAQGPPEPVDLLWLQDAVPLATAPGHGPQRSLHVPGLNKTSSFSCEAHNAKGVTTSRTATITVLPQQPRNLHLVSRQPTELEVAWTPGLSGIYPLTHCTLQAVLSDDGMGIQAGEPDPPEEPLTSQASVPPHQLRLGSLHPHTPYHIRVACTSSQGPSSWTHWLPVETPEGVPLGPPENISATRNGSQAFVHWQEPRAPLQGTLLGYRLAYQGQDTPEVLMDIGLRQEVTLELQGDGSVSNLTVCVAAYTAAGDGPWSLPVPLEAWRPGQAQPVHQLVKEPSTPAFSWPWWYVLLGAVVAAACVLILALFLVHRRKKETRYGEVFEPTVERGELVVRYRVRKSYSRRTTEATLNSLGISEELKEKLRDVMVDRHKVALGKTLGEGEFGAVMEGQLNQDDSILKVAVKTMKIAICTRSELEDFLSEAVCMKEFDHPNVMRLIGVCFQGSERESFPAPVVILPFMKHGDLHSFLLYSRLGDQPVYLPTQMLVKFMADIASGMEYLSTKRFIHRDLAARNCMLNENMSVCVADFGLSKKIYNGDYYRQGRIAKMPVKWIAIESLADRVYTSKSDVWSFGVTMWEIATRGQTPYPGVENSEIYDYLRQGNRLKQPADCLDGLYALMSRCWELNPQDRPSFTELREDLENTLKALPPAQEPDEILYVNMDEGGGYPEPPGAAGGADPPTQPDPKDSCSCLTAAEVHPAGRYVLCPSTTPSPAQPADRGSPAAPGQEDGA
Procedure: as §2
For Axl+ cells, the transduced cells were spun down at 500×g for 5 min and resuspended in media supplemented with 10 ng/mL IL-3 and 3 μg/mL puromycin (Invitrogen). Cells were maintained in these conditions for 7 days, passaging as required. After 7 days the cells were spun down, washed with fresh media, and then suspended in IL-3 free media. The cells were maintained in these conditions for 2 weeks to select for an IL-3 independent population of Axl+ driven cells.
as §1

[2] = molecular target: 2YF/3wt + NRG Ba/F3 cells (HER2YF/HER3wt) (Homo sapiens, UniProt P04626, Y1005F/Y1023F/Y1112F/Y1127F/Y1139F/Y1196F/Y1221F/Y1222F/Y1248F, cells depend on it); assay: Ba/F3 proliferation assay, 2YF/3wt + NRG; format: cell-based; settings: Tables 7 and 8; read-out: Ba/F3 line IC50, HER2YF/HER3 + NRG
2YF/3wt + NRG Ba/F3 cells (HER2YF/HER3wt), sequence (P04626 whole entry Y1005F/Y1023F/Y1112F/Y1127F/Y1139F/Y1196F/Y1221F/Y1222F/Y1248F): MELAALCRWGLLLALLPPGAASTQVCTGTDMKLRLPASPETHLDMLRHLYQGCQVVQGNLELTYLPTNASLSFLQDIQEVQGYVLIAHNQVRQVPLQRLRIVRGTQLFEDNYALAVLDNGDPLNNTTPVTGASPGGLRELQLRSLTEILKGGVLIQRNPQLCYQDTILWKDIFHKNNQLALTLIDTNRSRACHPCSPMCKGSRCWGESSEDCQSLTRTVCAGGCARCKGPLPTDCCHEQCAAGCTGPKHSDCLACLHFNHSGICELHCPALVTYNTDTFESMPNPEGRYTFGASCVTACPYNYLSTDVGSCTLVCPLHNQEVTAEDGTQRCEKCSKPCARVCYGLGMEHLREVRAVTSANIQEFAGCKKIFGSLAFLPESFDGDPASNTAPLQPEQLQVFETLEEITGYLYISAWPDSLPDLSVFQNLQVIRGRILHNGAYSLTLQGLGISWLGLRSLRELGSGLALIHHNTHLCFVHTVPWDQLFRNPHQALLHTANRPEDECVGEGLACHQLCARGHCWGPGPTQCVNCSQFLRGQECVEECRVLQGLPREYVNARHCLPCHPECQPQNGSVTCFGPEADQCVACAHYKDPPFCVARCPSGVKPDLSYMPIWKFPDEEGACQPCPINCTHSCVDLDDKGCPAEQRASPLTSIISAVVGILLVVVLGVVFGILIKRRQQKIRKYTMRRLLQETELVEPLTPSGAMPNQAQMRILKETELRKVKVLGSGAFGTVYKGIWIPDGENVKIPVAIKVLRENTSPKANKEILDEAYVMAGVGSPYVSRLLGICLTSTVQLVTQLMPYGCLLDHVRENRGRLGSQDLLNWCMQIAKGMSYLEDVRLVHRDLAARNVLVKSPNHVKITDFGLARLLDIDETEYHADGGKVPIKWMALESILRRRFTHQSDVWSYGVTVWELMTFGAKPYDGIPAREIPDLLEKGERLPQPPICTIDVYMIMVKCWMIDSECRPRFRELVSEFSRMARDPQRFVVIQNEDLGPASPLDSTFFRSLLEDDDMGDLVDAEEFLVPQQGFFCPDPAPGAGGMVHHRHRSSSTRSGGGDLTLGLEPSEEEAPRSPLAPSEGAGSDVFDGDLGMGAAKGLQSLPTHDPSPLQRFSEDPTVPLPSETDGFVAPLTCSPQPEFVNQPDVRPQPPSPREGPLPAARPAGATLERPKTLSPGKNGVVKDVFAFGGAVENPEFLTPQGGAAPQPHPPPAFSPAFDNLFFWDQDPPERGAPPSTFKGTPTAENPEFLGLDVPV
Excerpt: Ba/F3 cells are normally dependent on IL-3 signaling for their proliferation and survival, but can be made dependent on introduced oncogenic signals. We sequentially selected transduced Ba/F3 cells for populations stably expressing HER3 and then HER2. To ensure that all of the proliferative signal could be attributed to HER2/HER3 heterodimers, rather than HER2 homodimers, the 9 C-terminal tyrosines in HER2 were mutated to phenylalanine (HER2YF). We then withdrew IL-3 and supplemented the media with NRG to select for NRG dependent HER2YF/HER3wt cells (2YF/3wt).
For the 2YF/3wt cells, the parental cells were first transduced with HER3 according to the protocol above and were then spun down at 500×g for 5 min and re-suspended in media supplemented with 10 ng/mL IL-3 and 3 μg/mL puromycin (Invitrogen). Cells were maintained in these conditions for seven days, passaging as required. After seven days the cells were spun down, washed with fresh media, and then used for a subsequent round of transduction according to the protocol above with HER2YF virus. […] The cells were maintained in these conditions for seven days, passaging as required. After seven days the cells were spun down, washed with fresh media, and then suspended in media supplemented with 10 ng/mL of NRG. Cells were maintained in these conditions for seven days to select for a NRG dependent population of 2YF/3wt Ba/F3 cells that were then maintained as described above. The same protocol was used for the 2YF-L755S/3wt, 2YF-YVMA/3wt, and 2YF-VC/3wt cell lines using the indicated constructs.
Proliferation Assays. […] The following day media was changed to fresh media that contained either DMSO or the indicated concentration of drug plus NRG (50 ng/mL final concentration) as indicated. […] For all normalized assays, proliferation was normalized to the DMSO control condition. All graphs were plotted in GraphPad Prism 6 and fit with a non-linear regression of the log(inhibitor) vs response with a variable slope where shown. All graphs are averages (+/−standard deviation) of biological triplicates each performed in technical triplicate unless otherwise noted. If only one biological replicate was performed standard deviations were derived from the technical replicates.

[3] = Mouse Liver Microsome stability assay; format: in vitro ADME; settings: mouse liver microsomes

Structure (SMILES)	IC50 (HER2+/2VE Ba/F3 line) [nM]	IC50 [1] [nM]	GI50 (Axl+ Ba/F3 cells) [nM]	GI50 [2] [nM]	WuXi Microsomal stability (Mouse Extraction Ratio) [3]
COc1ccc(-c2ccccc2)cc1Nc1ncnc2[nH]nc(-c3ccc4ccccc4c3)c12 [Cmpd 190C]	1840	1510	643	862	–
COc1ccc(-c2ccccc2F)cc1Nc1ncnc2[nH]nc(-c3cc[nH]n3)c12 [8168A]	–	–	–	–	0.8
COc1ccc(-c2ncccn2)cc1Nc1ncnc2[nH]nc(-c3cc[nH]n3)c12 [compound 8185]	–	–	–	–	0.8
CC(=O)c1cccc(-c2n[nH]c3ncnc(Nc4cc(-c5ccccc5)ccc4O)c23)c1 [Cmpd 191A]	769	2910	506	150	–
COc1ccc(-c2ccco2)cc1Nc1ncnc2[nH]nc(-c3cn[nH]c3)c12 [Cmpd 53B]	83.5	> 10000	> 10000	13.9	–
COc1ccc(-c2ccccc2)cc1Nc1ncnc2[nH]ncc12 [Cmpd 5-004]	3150	> 3330	6940	2590	–
COc1ccc(-c2cccnc2)cc1Nc1ncnc2[nH]nc(-c3ccsc3)c12 [Cmpd 39D]	> 10000	> 10000	> 10000	> 10000	–
COc1ccc(-c2ccccc2)cc1Nc1ncnc2[nH]nc(-c3ccc(C#N)cc3)c12 [Cmpd 191D]	1110	1740	1010	884	–
COc1ccc(-c2ccccc2)cc1Nc1ncnc2[nH]nc(-c3ccc(C(F)(F)F)cc3)c12 [Cmpd 191E]	> 10000	> 10000	> 10000	> 10000	–
COc1ncc(-c2ccccc2)cc1Nc1ncnc2[nH]nc(-c3cc[nH]n3)c12 [compound 8177]	–	–	–	–	0.8
CC(=O)c1cccc(-c2n[nH]c3ncnc(Nc4ccc(Oc5ccccc5)cc4)c23)c1 [Cmpd 5-001B]	> 10000	> 10000	> 10000	> 10000	–
COc1ccc(C(=O)N(C)C)cc1Nc1ncnc2[nH]nc(-c3ccsc3)c12 [Cmpd 42]	> 10000	> 10000	> 10000	> 10000	–
COc1ccc(-c2ccccc2)cc1Nc1ncnc2[nH]nc(-c3ccoc3)c12 [Cmpd 13]	3400	> 10000	2960	839	–
COc1ccc(-c2ccccc2)cc1Nc1ncnc2[nH]nc(-c3cccc(C(C)=O)c3)c12 [compound 185, 1-(3-(4-((4-methoxy-[1,1′-biphenyl]-3-yl)amino)-1H-pyrazolo[3,4-d]pyrimidin-3-yl)phenyl)ethanone]	243	1490	257	148	–
COc1ccc(-c2ccccc2)cc1Nc1ncnc2[nH]nc(-c3ccccc3F)c12 [Cmpd 189A]	613	1120	362	361	–
CC(=O)c1cccc(-c2n[nH]c3ncnc(Nc4cc(-c5ccccc5)ccc4C)c23)c1 [Cmpd 5-001A]	> 3330	> 10000	> 3330	> 3330	–
CC(=O)c1cccc(-c2n[nH]c3ncnc(Nc4cccc(-c5ccccc5)c4)c23)c1 [Cmpd 186B]	> 10000	> 10000	> 10000	> 10000	–
COc1ccc(-c2ccccc2)cc1Nc1ncnc2[nH]nc(-c3ccc[nH]3)c12 [Cmpd 45C]	> 3330	> 10000	> 3330	952	–
c1ccc(-c2ccc(Nc3ncnc4[nH]nc(-c5ccccc5)c34)cc2)cc1 [Cmpd 188A]	> 10000	> 10000	> 10000	> 10000	–
COc1ccc(-c2ccccc2)cc1Nc1ncnc2[nH]nc(-c3ccccc3)c12 [Cmpd 184]	1290	9950	527	386	–
COc1ccc(-c2ccccc2)cc1Nc1ncnc2[nH]nc(-c3cn[nH]c3)c12 [Cmpd 45E]	1350	> 10000	> 10000	53	–
COc1ccc(N2CCOCC2)cc1Nc1ncnc2[nH]nc(-c3ccsc3)c12 [Cmpd 41A]	> 10000	> 10000	> 10000	> 3330	–
c1ccc(-c2cccc(Nc3ncnc4[nH]nc(-c5ccccc5)c34)c2)cc1 [Cmpd 186A]	> 10000	> 10000	> 10000	> 10000	–
COc1cccc(-c2n[nH]c3ncnc(Nc4cc(-c5ccccc5)ccc4OC)c23)c1 [Cmpd 190A]	229	450	171	86.8	–
COc1ccccc1Nc1ncnc2[nH]nc(-c3ccccc3)c12 [Cmpd 187A]	> 10000	> 10000	> 10000	> 10000	–
COc1ccc(-c2ccccc2)cc1Nc1ncnc2[nH]nc(-c3cccc4ccccc34)c12 [Cmpd 191B]	> 1000	> 1000	> 1000	> 1000	–
COc1ccc(C(C)(C)C)cc1Nc1ncnc2[nH]nc(-c3cccc(C(C)=O)c3)c12 [Cmpd 190D]	> 10000	> 10000	> 10000	> 10000	–
COc1ccc(-c2ccoc2)cc1Nc1ncnc2[nH]nc(-c3ccco3)c12 [Cmpd 57A]	460	> 10000	> 10000	21	–
COc1ccc(-c2ccccc2)cc1Nc1ncnc2[nH]nc(-c3ccc(C(C)=O)cc3)c12 [Cmpd 191H]	> 10000	> 10000	> 10000	> 10000	–
